In patent US8785594B2, “Glycoproteins and glycosylated cells and a method for the preparation of the same” (Glycom A/S, priority 2007, dated 2014):
Marks after values point to notes of the source that are not given here.

Key:
Type in all cases: cell-based
B16.BL6 melanoma cells [1] = assay: Staining of cell smears with FITC-labelled GS1B4 (Example 11)
Description: (§1) Five hundred mg of alpha-Gal trisaccharide-carbamate (9) was dissolved in PBS (without Mg^2+ and Ca^2+) (Gibco Invitrogen, Taastrup, Denmark) and passed through a sterile filter (Sartorius Minisart®, 0.20 my) (Sartorius, Goettingen, Germany). Eight different concentrations of conjugate were prepared. Two mL of each conjugate dilution was added to a flask with 2 mL of PBS (without Mg^2+ and Ca^2+) and 600 μl of cell suspension containing 10^6 B16.BL6 cells. The final volume of the flasks was 4.6 mL. The flasks were numbered 1 to 10. Flasks 1 and 10 contained no conjugate and served as controls. The cells were incubated with the conjugate for 3 hours and 25 minutes at 37° C. and 5% CO2.
Smears of cells from conjugation reaction 1 (non-conjugated control cells), 2, 4, 6 and 8 were incubated for 1 hour at room temperature with FITC-labelled GS1B4 diluted 1:200 in TBS. After a rinse in TBS, one drop of Fluorescent Mounting Medium (DAKO) was placed on each of the cell specimens and glass coverslips were placed on top. Binding of FITC-labelled GS1B4 to Galα1,3Gal on conjugated cells was assessed by fluorescence microscopy.

B16.BL6 melanoma cells [2] = assay: Flow cytometry with FITC-labelled GS1B4 (Example 11)
Description: as §1
B16.BL6 cells from conjugation reaction 1 (non-conjugated cells), 2, 4, 6 and 8 were analysed by flow cytometry. One hundred μL of cell suspension containing 1×10^5 cells were incubated for 15 minutes at 4° C. with 10 μg per mL (1:100 dilution) of FITC-labelled GS1B4 in TBS containing 1% BSA. The proportion of cells stained, mean and median cell fluorescence intensity was determined by flow cytometry. Afterwards, cells were washed once in PBS and measurements were repeated. Rabbit red blood cells (RRBC) known to express ˜2×10^6 Galα1,3Gal epitopes per cell were used for comparison. The analyses of conjugated B16.BL6 cells and RRBCs were performed on different days.

B16.BL6 melanoma cells [3] = assay: Cell viability after 1 hour conjugation, trypan blue (Example 12); conditions: for Viability of cells harvested: 1 hour
Description: The alpha-Gal trisaccharide-carbamate probe (9) was dissolved in both PBS (without Mg^2+ and Ca^2+) (Gibco Invitrogen, Taastrup, Denmark) and HBSS (with D-glucose) (Gibco Invitrogen, Taastrup, Denmark) and passed through sterile filters (Sartorius Minisart®, 0.20 my) (Sartorius, Goettingen, Germany). Three different concentrations of the trisaccharide probe were prepared in both PBS and HBSS.
Eight small flasks (25 cm^2) (TPP, Trasadingen Switzerland) were prepared, each containing 10^6 B16.BL6 cells, and the trisaccharide probe was added. Total volume of the flasks was 4.6 mL. The cells were incubated with the conjugate for 1 hour at 37° C. and 5% CO2.
After conjugation, the supernatant from each flask was transferred to separate 10 mL tubes (TPP, Trasadingen Switzerland). The cells were harvested with Cell Dissociation Solution (2 mL per flask) (Sigma-aldrich, Saint Louis, Mo.) and transferred to the 10 mL tubes. Cells were centrifuged for 5 minutes at 300 G at 20° C. and resuspended in 0.5 mL of PBS or HBSS. Cell concentration and viability was determined by microscopic evaluation of trypan blue stained cell samples.

B16.BL6 melanoma cells [4] = assay: Flow cytometry with FITC-labelled GS1B4 (Example 13)
Description: The alpha-Gal trisaccharide probe (9) was dissolved in HBSS (Gibco Invitrogen, Taastrup, Denmark) and passed through a sterile filter (0.2 μm Supor® Acrodisc® 13, Gelman Sciences, Ann Arbor, Mich.). Three different concentrations of the alpha-Gal trisaccharide-carbamate (9) were made. Five small flasks were prepared with 606 μL of cell suspension containing a total of 10^6 B16.BL6 cells in addition to 4 mL of one of the conjugate solutions. Each flask contained a total volume of 4.6 mL. The cells were incubated with the “Glycom conjugate” for either 3 or 1.5 hours at 37° C.
After conjugation, the supernatant from each flask was transferred to separate 10 mL tubes (TPP, Trasadingen Switzerland). Cells were washed twice by adding PBS to the flasks and immediately removing it again. The cells were harvested with Cell Dissociation Solution (2 mL per flask) (Sigma-aldrich, Saint Louis, Mo.). After 5 minutes, cells were transferred to the 10 mL test tubes. The cells were centrifuged for 5 minutes at 300 G at 20° C. and resuspended in 0.5 mL of PBS. Cell concentration and viability was determined by microscopic evaluation of trypan blue stained cell samples.
One hundred μL of cell suspension containing 1×10^5 cells were incubated for 15 minutes at 4° C. with 10 μg per mL (1:100 dilution) of FITC-labelled GS1B4 in PBS. Rabbit red blood cells (A) were used for comparison,
As very few cells were available for flow cytometry analysis the exact cell concentration was not determined. Instead, the amount of cells used was estimated to 0.4×10^5. The cells were incubated for 15 minutes at 4° C. with 4 μg per mL of FITC-labelled GS1B4 in PBS. Rabbit red blood cells (B) were used for comparison.
Mean and median cell fluorescence intensity was determined by flow cytometry.

[5] = unwashed cells, reaction 2 (200 mg conjugate)
[6] = unwashed cells, reaction 6 (10 mg conjugate)
[7] = unwashed cells, reaction 8 (2 mg conjugate)
[8] = washed cells, reaction 2 (200 mg conjugate)
[9] = washed cells, reaction 6 (10 mg conjugate)
[10] = washed cells, reaction 8 (2 mg conjugate)
[11] = reaction 1, 19.2 mg, 3 hours, 10 μg per mL FITC-GS1B4
[12] = reaction 2, 19.2 mg, 1.5 hours, group of 35.3% of the cells
[13] = reaction 2, 19.2 mg, 1.5 hours, group of 62.7% of the cells
[14] = reaction 4, 58 mg, 1.5 hours, group of 15.65% of the cells
[15] = reaction 4, 58 mg, 1.5 hours, group of 84.26% of the cells

O=C1N[C@@H]2O[C@H](CO)[C@@H](O[C@@H]3O[C@H](CO)[C@H](O)[C@H](O[C@H]4O[C@H](CO)[C@H](O)[C@H](O)[C@H]4O)[C@H]3O)[C@H](O)[C@H]2O1 [Compound 9, alpha-Gal trisaccharide-carbamate]
Staining of cell membranes with FITC-labelled GS1B4 (B16.BL6 melanoma cells [1]; conjugation reaction 2 (200 mg)): heavily stained | Galα1,3Gal epitopes detected by binding of FITC-labelled GS1B4 on cell smears (B16.BL6 melanoma cells [1]; conjugation reactions 2, 4, 6 and 8 (200, 50, 10, 2 mg)): found on cells from all conjugation reactions tested | Galα1,3Gal epitopes detected by binding of FITC-labelled GS1B4, flow cytometry (B16.BL6 melanoma cells [2]; conjugation reactions 2, 6 and 8): found on B16.BL6 cells from all conjugation reactions tested | Number of Galα1,3Gal-epitopes on the conjugated cells (B16.BL6 melanoma cells [2]; from fluorescence intensity, compared with rabbit red blood cells): > 2×10^6 Galα1,3Gal epitopes | Cells marked with FITC-GS1B4 (B16.BL6 melanoma cells [2]; reaction 2 (200 mg conjugate)): 95.82% | Cells marked with FITC-GS1B4 (B16.BL6 melanoma cells [2]; reaction 6, 10 mg conjugate): 62.17% | Cells marked with FITC-GS1B4 (B16.BL6 melanoma cells [2]; reaction 8, 2 mg conjugate): 56.82% | Mean fluorescence intensity (B16.BL6 melanoma cells [2]; [5]): 726.72 | Median fluorescence intensity (B16.BL6 melanoma cells [2]; [5]): 523.30 | Mean fluorescence intensity (B16.BL6 melanoma cells [2]; [6]): 862.24 | Median fluorescence intensity (B16.BL6 melanoma cells [2]; [6]): 798.63 | Mean fluorescence intensity (B16.BL6 melanoma cells [2]; [7]): 594.99 | Median fluorescence intensity (B16.BL6 melanoma cells [2]; [7]): 572.55 | Mean fluorescence intensity (B16.BL6 melanoma cells [2]; [8]): 447.48 | Median fluorescence intensity (B16.BL6 melanoma cells [2]; [8]): 321.97 | Mean fluorescence intensity (B16.BL6 melanoma cells [2]; [9]): 439.04 | Median fluorescence intensity (B16.BL6 melanoma cells [2]; [9]): 406.79 | Mean fluorescence intensity (B16.BL6 melanoma cells [2]; [10]): 264.30 | Median fluorescence intensity (B16.BL6 melanoma cells [2]; [10]): 259.45 | Viability of cells after incubation, before harvest (B16.BL6 melanoma cells [3]; after the 1-hour incubation with the trisaccharide probe): most of the cells were viable | Viability of cells harvested (B16.BL6 melanoma cells [3]; reaction HA, 16 mg, HBSS (with D-glucose)): 33.3% | Viability of cells harvested (B16.BL6 melanoma cells [3]; reaction HB, 2 mg, HBSS (with D-glucose)): 41.7% | Viability of cells harvested (B16.BL6 melanoma cells [3]; reaction HC, 1 mg, HBSS (with D-glucose)): 41.6% | Viability of cells harvested (B16.BL6 melanoma cells [3]; reaction PA, 16 mg, PBS): 14.3% | Viability of cells harvested (B16.BL6 melanoma cells [3]; reaction PB, 2 mg, PBS): 32.0% | Viability of cells harvested (B16.BL6 melanoma cells [3]; reaction PC, 1 mg, PBS): 37.5% | Galα1,3Gal epitopes detected by binding of FITC-labelled GS1B4, flow cytometry (B16.BL6 melanoma cells [4]; all conjugation reactions (1.9-58 mg, 1.5 or 3 hours)): found on B16.BL6 cells from all conjugation reactions | Mean fluorescence intensity (B16.BL6 melanoma cells [4]; [11]): 197.8 | Median fluorescence intensity (B16.BL6 melanoma cells [4]; [11]): 155.4 | Share of the cells in the group of higher fluorescence intensity (B16.BL6 melanoma cells [4]; reaction 2, 19.2 mg, 1.5 hours): 2 (35.3% of the cells)** | Share of the cells in the group of lower fluorescence intensity (B16.BL6 melanoma cells [4]; reaction 2, 19.2 mg, 1.5 hours): 2 (62.7% of the cells)** | Mean fluorescence intensity (B16.BL6 melanoma cells [4]; [12]): 2940.2 | Median fluorescence intensity (B16.BL6 melanoma cells [4]; [12]): 2196.8 | Mean fluorescence intensity (B16.BL6 melanoma cells [4]; [13]): 161.63 | Median fluorescence intensity (B16.BL6 melanoma cells [4]; [13]): 125.2 | Mean fluorescence intensity (B16.BL6 melanoma cells [4]; reaction 3, 1.9 mg, 1.5 hours): 167.8 | Median fluorescence intensity (B16.BL6 melanoma cells [4]; reaction 3, 1.9 mg, 1.5 hours): 66.4 | Share of the cells in the group of higher fluorescence intensity (B16.BL6 melanoma cells [4]; reaction 4, 58 mg, 1.5 hours): 4 (15.65% of the cells) | Share of the cells in the group of lower fluorescence intensity (B16.BL6 melanoma cells [4]; reaction 4, 58 mg, 1.5 hours): 4 (84.26% of the cells) | Mean fluorescence intensity (B16.BL6 melanoma cells [4]; [14]): 770.0 | Median fluorescence intensity (B16.BL6 melanoma cells [4]; [14]): 504.8 | Mean fluorescence intensity (B16.BL6 melanoma cells [4]; [15]): 49.2 | Median fluorescence intensity (B16.BL6 melanoma cells [4]; [15]): 44.1
